Measured values published in US11458102B2, “Acetaminophen preparation, and method for producing same” (NIPPON ZOKI PHARMACEUTICAL CO., LTD., priority 2017, dated 2022).
Values belong to the molecule of their own block, whether it stands above or below them.

Experiment: Particle size distribution of acetaminophen drug substance by laser-diffraction method (dry measurement)
Format: physicochemical
Text: The acetaminophen to be used in the present invention (also referred to as “the present acetaminophen”) has a particle size distribution in which d10 is generally 5 to 200 μm, preferably 10 to 150 μm, more preferably 12 to 100 μm, and d90 is generally 200 to 1800 μm, preferably 250 to 1600 μm, more preferably 280 to 1450 μm. Although there are some differences in the particle size distribution among lots, the unpulverized acetaminophen generally has the above-specified particle size distribution. In contrast, although there are some differences in the particle size distribution of a pulverized product of acetaminophen among the manufacturers of the drug substance and production lots, a pulverized product of acetaminophen generally has a particle size distribution in which the d10 is 3 to 10 μm and d90 is 100 to 250 μm, and therefore the particle diameters of the pulverized product of acetaminophen are smaller compared with those of the present acetaminophen. In the present invention, the particle size distribution is determined by a volume distribution evaluation employing a laser-diffraction method (Measuring Instrument: e.g., Mastersizer 2000 or Mastersizer 3000 (Malvern), Dispersion compression air pressure: 2 to 4 Bar), and the terms “d10”, “d50”, and “d90” refer to particle diameters at a volume cumulative 10% point, a volume cumulative 50% point, and a volume cumulative 90% point, respectively, as observed from the smaller diameter side in the particle size distribution. “a laser-diffraction method” is also referred to as “a laser-diffraction scattering method” Each of unpulverized products of acetaminophen (lots A to P) and pulverized products of acetaminophen (lots a to b) was subjected to a particle size distribution measurement using a particle measurement method (dry measurement) by a laser-diffraction method. As an instrument, a dry automated dispersion unit microtray (Mastersizer 2000 or Mastersizer 3000, Malvern) was used, the dispersion compression air pressure was 2 Bar or 4 Bar, and the analysis of particle size distribution was performed by a volume conversion method. […] The range of the particle size distribution in the present invention is determined with taking the above-mentioned finding into consideration. The lots of the acetaminophen drug substances shown in Table 1 are different from each other with respect to the conditions for manufacturing thereof, such as temperature and humidity. […] For example, the results of (1) to (2) of lot E and (1) to (12) of lot H in Table 1 are the results for different measurement samples of the same lots. As apparent from the results, the measurement results may vary depending on the zones of sampling even when the samples are of the same lot or depending on the types of measurement instrument to be used even when the measurement is carried out by the same method.

[1] = Mastersizer 2000, laser diffraction, volume distribution, dry, listed as A
[2] = Mastersizer 2000, laser diffraction, volume distribution, dry, listed as a
[3] = Mastersizer 2000, laser diffraction, volume distribution, dry, listed as B
[4] = Mastersizer 2000, laser diffraction, volume distribution, dry, listed as b
[5] = Mastersizer 2000, laser diffraction, volume distribution, dry, listed as C
[6] = measurement instrument printed as dash, listed as c
[7] = Mastersizer 2000, laser diffraction, volume distribution, dry, listed as D
[8] = measurement instrument printed as dash, listed as d
[9] = Mastersizer 2000, laser diffraction, volume distribution, dry, listed as E
[10] = Mastersizer 3000, laser diffraction, volume distribution, dry
[11] = Mastersizer 2000, laser diffraction, volume distribution, dry, listed as F
[12] = Mastersizer 2000, laser diffraction, volume distribution, dry, listed as G
[13] = Mastersizer 2000, laser diffraction, volume distribution, dry, listed as H
[14] = Mastersizer 2000, laser diffraction, volume distribution, dry, listed as I
[15] = Mastersizer 2000, laser diffraction, volume distribution, dry, listed as J
[16] = Mastersizer 2000, laser diffraction, volume distribution, dry, listed as K
[17] = Mastersizer 2000, laser diffraction, volume distribution, dry, listed as L
[18] = Mastersizer 2000, laser diffraction, volume distribution, dry, listed as M
[19] = Mastersizer 2000, laser diffraction, volume distribution, dry, listed as N
[20] = Mastersizer 2000, laser diffraction, volume distribution, dry, listed as O
[21] = Mastersizer 2000, laser diffraction, volume distribution, dry, listed as P

- Particle Diameters D10 [1]: 20 μm
- Particle Diameters D90 [1]: 320 μm
- Particle Diameters D10 [2]: 4 μm
- Particle Diameters D90 [2]: 166 μm
SMILES: CC(=O)Nc1ccc(O)cc1 [Lot A, acetaminophen]

- Particle Diameters D10 [3]: 30 μm
- Particle Diameters D90 [3]: 551 μm
- Particle Diameters D10 [4]: 4 μm
- Particle Diameters D90 [4]: 144 μm
SMILES: CC(=O)Nc1ccc(O)cc1 [Lot B, acetaminophen]

- Particle Diameters D10 [5]: 26 μm
- Particle Diameters D90 [5]: 419 μm
- Particle Diameters D10 [6]: 6 μm
- Particle Diameters D90 [6]: 104 μm
SMILES: CC(=O)Nc1ccc(O)cc1 [Lot C, acetaminophen]

- Particle Diameters D10 [7]: 20 μm
- Particle Diameters D90 [7]: 464 μm
- Particle Diameters D10 [8]: 10 μm
- Particle Diameters D90 [8]: 192 μm
SMILES: CC(=O)Nc1ccc(O)cc1 [Lot D, acetaminophen]

- Particle Diameters D10 [9]: 16 μm
- Particle Diameters D90 [9]: 361 μm
- Particle Diameters D10 [10]: 66 μm
- Particle Diameters D90 [10]: 1290 μm
SMILES: CC(=O)Nc1ccc(O)cc1 [Lot E, acetaminophen]

- Particle Diameters D10 [11]: 31 μm
- Particle Diameters D90 [11]: 488 μm
SMILES: CC(=O)Nc1ccc(O)cc1 [Lot F, acetaminophen]

- Particle Diameters D10 [12]: 24 μm
- Particle Diameters D90 [12]: 432 μm
SMILES: CC(=O)Nc1ccc(O)cc1 [Lot G, acetaminophen]

- Particle Diameters D10 [13]: 23 μm
- Particle Diameters D90 [13]: 429 μm
SMILES: CC(=O)Nc1ccc(O)cc1 [Lot H, acetaminophen]

- Particle Diameters D10 [14]: 22 μm
- Particle Diameters D90 [14]: 433 μm
SMILES: CC(=O)Nc1ccc(O)cc1 [Lot I, acetaminophen]

- Particle Diameters D10 [15]: 27 μm
- Particle Diameters D90 [15]: 404 μm
SMILES: CC(=O)Nc1ccc(O)cc1 [Lot J, acetaminophen]

- Particle Diameters D10 [16]: 22 μm
- Particle Diameters D90 [16]: 442 μm
SMILES: CC(=O)Nc1ccc(O)cc1 [Lot K, acetaminophen]

- Particle Diameters D10 [17]: 30 μm
- Particle Diameters D90 [17]: 486 μm
SMILES: CC(=O)Nc1ccc(O)cc1 [Lot L, acetaminophen]

- Particle Diameters D10 [18]: 27 μm
- Particle Diameters D90 [18]: 419 μm
SMILES: CC(=O)Nc1ccc(O)cc1 [Lot M, acetaminophen]

- Particle Diameters D10 [19]: 26 μm
- Particle Diameters D90 [19]: 439 μm
SMILES: CC(=O)Nc1ccc(O)cc1 [Lot N, acetaminophen]

- Particle Diameters D10 [20]: 24 μm
- Particle Diameters D90 [20]: 387 μm
SMILES: CC(=O)Nc1ccc(O)cc1 [Lot O, acetaminophen]

- Particle Diameters D10 [21]: 20 μm
- Particle Diameters D90 [21]: 424 μm
SMILES: CC(=O)Nc1ccc(O)cc1 [Lot P, acetaminophen]
